# Reference: US20230274811A1, “METHODS OF MAKING PROSTATE CANCER TREATMENT DECISIONS” (Progenics Pharmaceuticals, Inc., priority 2020, published 2023)
# Tested on: biochemically recurrent prostate cancer
# Test: CONDOR: 18F-DCFPyL PET/CT correct localization rate, detection rate and PPV vs composite standard of truth
# Assay type: in vivo, men
# Conditions: for PPV % (95% CI): patient level
# Excerpt: 1. Correct Localization Rate (CLR), defined as percentage of subjects with a one-to-one correspondence between localization of at least one lesion identified on ^18F-DCFPyL PET/CT imaging and the composite truth standard, defined as either evaluable histopathology, informative correlative imaging, or PSA response after radiation therapy.
# Men ≥18 years of age with a rising PSA after definitive PCa therapy and negative or equivocal imaging were enrolled. […] The primary endpoint of this study was the correct localization rate (CLR). CLR is defined as the percentage of patients with a one-to-one correspondence between localization of at least one lesion identified by ^18F-DCFPyL PET/CT and a composite standard of truth (SOT). SOT was determined by two central readers and included either histopathology or another standard imaging modality (i.e., fluciclovine-PET/CT, CT/MRI, bone scan) or alternatively, by a post-treatment PSA change for irradiated lesions.
# Methods: Men ≥18 years—with rising PSA after definitive therapy and negative or equivocal standard of care imaging (e.g., CT/MRI, bone scintigraphy) were enrolled. A single 9 mCi (333 MBq)±20% dose of PyL was injected, followed by PET/CT 1-2 hours later. Primary endpoint was correct localization rate (CLR), defined as percentage of pts with a 1:1 correspondence between at least one lesion identified by PyL-PET/CT and the composite standard of truth: pathology, correlative imaging, or PSA response. […] The secondary endpoint, impact of PyL-PET/CT on clinical management of pts was based on the treating physician's documented clinical plans before and after PyL-PET/CT.
# Men with a PSA ≥0.2 ng/mL after surgery or ≥2 ng/mL above the nadir after radiation therapy were eligible for enrollment. The primary endpoint was the correct localization rate (CLR) defined as positive predictive value with an additional requirement of anatomical lesion colocalization between ^18F-DCFPyL-PET/CT and a composite standard of truth (SOT). The SOT consisted of, in descending priority: 1) histopathology, 2) correlative imaging findings determined by two central readers, or 3) post-radiation PSA response. […] The impact of ^18F-DCFPyL-PET/CT as defined by change in management intent, and safety were evaluated as secondary endpoints.
# Patients voided prior to imaging, and PET and non-contrast CT images were acquired from the mid-thigh through the skull vertex. All ^18F-DCFPyL-PET/CT scans were submitted to the central imaging core laboratory for assessment. Patients with positive ^18F-DCFPyL-PET/CT scans based on local interpretation were scheduled for post-^18F-DCFPyL-PET/CT follow-up to verify suspected lesion(s) based on a composite standard of truth (SOT). (FIG. 16)
# Because of the expected absence of an amenable lesion for histologic verification in all patients, a composite SOT was employed based on assessment performed or initiated within 60 days following ^18F-DCFPyL-PET/CT. These reference standards were defined (in descending priority) as (1) evaluable histopathology results from prostatectomy, salvage pelvic lymph node dissection or biopsy; (2) imaging findings using ^18F-fluciclovine or ^11C-choline PET, or focused MRI or CT; or (3) if neither of the above was available or informative, confirmed PSA response up to 9 months post-radiation initiation (with no concomitant ADT) of all PET-positive foci. PSA response was defined as PSA decline by ≥50% from baseline that was confirmed on repeat measurement within 4 weeks, based on central laboratory results.
# A central imaging core laboratory was employed to independently manage image handling, reader training, reader sessions and data collection. […] The readers had no access to any clinical information, including PSA values or other imaging available for a patient. […]
# [1] = SOT Correlative imaging n=100, Reader 3
# [2] = SOT Histopathology n=31, Reader 1
# [3] = SOT Histopathology n=31, Reader 2
# [4] = SOT Histopathology n=31, Reader 3
# [5] = SOT PET-Fluciclovine n=71, Reader 1
# [6] = SOT PET-Fluciclovine n=71, Reader 2
# [7] = SOT PET-Fluciclovine n=71, Reader 3
structure (smiles),measurement,setting,value
"O=C(O)CC[C@H](NC(=O)N[C@@H](CCCCNC(=O)c1ccc([18F])nc1)C(=O)O)C(=O)O [18F-DCFPyL, 2-(3-{1-carboxy-5-[(6-[^18F]fluoro-pyridine-3-carbonyl)-amino]-pentyl}ureido)-pentanedioic acid]",CLR (TP/TP + FP),[1],(86.1%)
same,Negative PyL Scan,[1],(23.0%)
same,PPV (TP/TP + FP),[1],(87.0%)
same,Positive PyL Scan,[1],(77.0%)
same,CLR (TP/TP + FP),[2],(78.6%)
same,Negative PyL Scan,[2],(6.5%)
same,PPV (TP/TP + FP),[2],(93.1%)
same,Positive PyL Scan,[2],(93.5%)
same,CLR (TP/TP + FP),[3],(82.8%)
same,Negative PyL Scan,[3],(3.2%)
same,PPV (TP/TP + FP),[3],(93.3%)
same,Positive PyL Scan,[3],(96.8%)
same,CLR (TP/TP + FP),[4],(80.8%)
same,Negative PyL Scan,[4],(9.7%)
same,PPV (TP/TP + FP),[4],(92.9%)
same,Positive PyL Scan,[4],(90.3%)
same,CLR (TP/TP + FP),"SOT MRI n=23, Reader 1",(80.0%)
same,Negative PyL Scan,"SOT MRI n=23, Reader 1",(30.4%)
same,Positive PyL Scan,"SOT MRI n=23, Reader 1",(69.6%)
same,CLR (TP/TP + FP),"SOT MRI n=23, Reader 2",(86.7%)
same,Negative PyL Scan,"SOT MRI n=23, Reader 2",(30.4%)
same,Positive PyL Scan,"SOT MRI n=23, Reader 2",(69.6%)
same,CLR (TP/TP + FP),"SOT MRI n=23, Reader 3",(86.7%)
same,Negative PyL Scan,"SOT MRI n=23, Reader 3",(30.4%)
same,Positive PyL Scan,"SOT MRI n=23, Reader 3",(69.6%)
same,CLR (TP/TP + FP),[5],(90.9%)
same,Negative PyL Scan,[5],(14.1%)
same,Positive PyL Scan,[5],(85.9%)
same,CLR (TP/TP + FP),[6],(90.0%)
same,Negative PyL Scan,[6],(23.9%)
same,Positive PyL Scan,[6],(76.1%)
same,CLR (TP/TP + FP),[7],(86.8%)
same,Negative PyL Scan,[7],(19.7%)
same,Positive PyL Scan,[7],(80.3%)
same,CLR (TP/TP + FP),"SOT PSA response n=1, Reader 1",(100%)
same,Negative PyL Scan,"SOT PSA response n=1, Reader 1",(0.0%)
same,PPV (TP/TP + FP),"SOT PSA response n=1, Reader 1",(100%)
same,Positive PyL Scan,"SOT PSA response n=1, Reader 1",(100%)
same,CLR (TP/TP + FP),"SOT PSA response n=1, Reader 2",(100%)
same,Negative PyL Scan,"SOT PSA response n=1, Reader 2",(0.0%)
same,PPV (TP/TP + FP),"SOT PSA response n=1, Reader 2",(100%)
same,Positive PyL Scan,"SOT PSA response n=1, Reader 2",(100%)
same,CLR (TP/TP + FP),"SOT PSA response n=1, Reader 3",(100%)
same,Negative PyL Scan,"SOT PSA response n=1, Reader 3",(0.0%)
same,PPV (TP/TP + FP),"SOT PSA response n=1, Reader 3",(100%)
same,Positive PyL Scan,"SOT PSA response n=1, Reader 3",(100%)
same,CLR (TP/TP + FP),"all patients n=208, Reader 1",(85.6%)
same,Negative PyL Scan,"all patients n=208, Reader 1",(34.1%)
same,Positive PyL Scan,"all patients n=208, Reader 1",(65.9%)
same,CLR (TP/TP + FP),"all patients n=208, Reader 2",(87.0%)
same,Negative PyL Scan,"all patients n=208, Reader 2",(40.4%)
same,Positive PyL Scan,"all patients n=208, Reader 2",(59.6%)
same,CLR (TP/TP + FP),"all patients n=208, Reader 3",(84.8%)
same,Negative PyL Scan,"all patients n=208, Reader 3",(40.9%)
same,Positive PyL Scan,"all patients n=208, Reader 3",(59.1%)
same,lesion detection rate,baseline PSA <0.5 ng/mL,36.2%
same,median CLR,baseline PSA <0.5 ng/mL,73.3%
same,lesion detection rate,baseline PSA ≥5 ng/mL,96.7%
same,median CLR,baseline PSA ≥5 ng/mL,96.4%
same,PPV % (95% CI),CONDOR Reader 4,90%
same,PPV % (95% CI),CONDOR Reader 5,91%
same,PPV % (95% CI),CONDOR Reader 6,89%
same,CLR,patients with PSA 0.2 to <2.0 ng/mL,> 73%
same,"PET/CT finding, case study 2","person, PSA 1.27 ng/mL, confirmed by contrast-MRI",lumbar spine metastasis
same,"PET/CT finding, case study 1","person, PSA 1.92 ng/mL, confirmed by pathology",L common iliac and multiple retroperitoneal lymph node lesions
same,"PET/CT finding, case study 3","person, PSA 1.78, confirmed by biopsy",a thoracic spine lesion
